pIC50: −log10 of the molar value.
Molecular target: human PDE4D catalytic domain (Homo sapiens (Human), UniProt Q08499)
Assay: PDE4 Assay (TR-FRET, FAM-cAMP cleavage)
Assay type: biochemical
Conditions: Table 16, Examples 277-296; read-out: PDE4 IC50 range
Method in brief: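 PDE4D catalytic domain (S380-L740) incubated briefly with unlabelled cAMP plus FAM-cAMP and titrated compound. Reaction stopped with binding buffer holding metal-ion nanoparticles that bind AMP phospho groups and Tb donor, and AMP formation read by TR-FRET. IC50 versus controls, reported as ranges (nM).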

Sequence of human PDE4D catalytic domain (Q08499 380-740): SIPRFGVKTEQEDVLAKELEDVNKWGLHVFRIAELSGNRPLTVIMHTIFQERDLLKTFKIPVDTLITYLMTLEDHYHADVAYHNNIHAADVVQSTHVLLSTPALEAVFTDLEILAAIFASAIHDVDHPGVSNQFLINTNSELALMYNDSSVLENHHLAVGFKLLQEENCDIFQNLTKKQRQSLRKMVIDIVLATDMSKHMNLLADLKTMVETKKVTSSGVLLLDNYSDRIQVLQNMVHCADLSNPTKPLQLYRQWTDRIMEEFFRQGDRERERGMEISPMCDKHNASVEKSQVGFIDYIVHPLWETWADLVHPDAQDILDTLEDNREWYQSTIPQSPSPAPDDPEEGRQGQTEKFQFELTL

| SMILES | pIC50 |
| --- | --- |
| CCn1nc(C[C@@H](C)COC(=O)c2cc(C)nc(C)c2)c2c1C(=O)NCC1(CCOCC1)C2 [Example 293, [(2R)-3-(1-ethyl-8-oxo-spiro[6,7-dihydro-4H-pyrazolo[3,4-c]azepine-5,4′-tetrahydropyran]-3-yl)-2-methyl-propyl] 2,6-dimethylpyridine-4-carboxylate] | > 7.00 |
| CCn1nc(C[C@@H](C)COC(=O)c2cc(C)n(C)n2)c2c1C(=O)NCC1(CCOCC1)C2 [Example 289, [(2R)-3-(1-ethyl-8-oxo-spiro[6,7-dihydro-4H-pyrazolo[3,4-c]azepine-5,4′-tetrahydropyran]-3-yl)-2-methyl-propyl] 1,5-dimethylpyrazole-3-carboxylate] | > 7.00 |

Same assay, conditions: Table 17, Examples 297-316; read-out: PDE4 IC50 range

| SMILES | pIC50 |
| --- | --- |
| CCn1nc(CC(C)(C)COC(=O)c2cocn2)c2c1C(=O)NCC1(CCOCC1)C2 [Example 297, [3-(1-ethyl-8-oxo-spiro[6,7-dihydro-4H-pyrazolo[3,4-c]azepine-5,4′-tetrahydro-pyran]-3-yl)-2,2-dimethyl-propyl] oxazole-4-carboxylate] | > 7.00 |

Same assay, conditions: human PDE4D catalytic domain (UniProt Q08499 [S380-L740]); 50% inhibition of substrate cleavage; read-out: PDE4 IC50 range

| SMILES | pIC50 |
| --- | --- |
| CCn1nc(CCCOC(=O)c2cccc(C(=O)N3CCCCC3)c2)c2c1C(=O)NCC1(CCOCC1)C2 [Example 117, 3-(1-ethyl-8-oxo-spiro[6,7-dihydro-4H-pyrazolo[3,4-c]azepine-5,4′-tetrahydropyran]-3-yl)propyl 3-(piperidine-1-carbonyl)benzoate] | > 7.00 |
| CCc1ccc(C(=O)OCC(C)(C)Cc2nn(CC)c3c2CC2(CCOCC2)CNC3=O)cc1 [Example 195, [3-(1-ethyl-8-oxo-spiro[6,7-dihydro-4H-pyrazolo[3,4-c]azepine-5,4′-tetrahydropyran]-3-yl)-2,2-dimethyl-propyl] 4-ethylbenzoate] | > 7.00 |
| CCn1nc(C[C@@H](C)COC(=O)c2cccc(C(=O)N3CCN(C(C)=O)CC3)c2)c2c1C(=O)NCC1(CCOCC1)C2 [Example 185, [(2R)-3-(1-ethyl-8-oxo-spiro[6,7-dihydro-4H-pyrazolo[3,4-c]azepine-5,4′-tetrahydropyran]-3-yl)-2-methyl-propyl] 3-(4-acetylpiperazine-1-carbonyl)benzoate] | > 7.00 |
| CCn1cc(C(=O)OCCCc2nn(CC)c3c2CC2(CCOCC2)CNC3=O)cn1 [Example 250, 3-(1-ethyl-8-oxo-spiro[6,7-dihydro-4H-pyrazolo[3,4-c]azepine-5,4′-tetrahydropyran]-3-yl)propyl 1-ethylpyrazole-4-carboxylate] | > 7.00 |
| CCn1nc(CCCOC(=O)c2cocn2)c2c1C(=O)NCC1(CCOCC1)C2 [Example 235, 3-(1-ethyl-8-oxo-spiro[6,7-dihydro-4H-pyrazolo[3,4-c]azepine-5,4′-tetrahydro-pyran]-3-yl)propyl oxazole-4-carboxylate] | > 7.00 |
| CCn1nc(CCCOC(=O)c2cnn(C)c2)c2c1C(=O)NCC1(CCOCC1)C2 [Example 238, 3-(1-ethyl-8-oxo-spiro[6,7-dihydro-4H-pyrazolo[3,4-c]azepine-5,4′-tetrahydropyran]-3-yl)propyl 1-methylpyrazole-4-carboxylate] | > 7.00 |
| CCc1nc(C(=O)OCCCc2nn(CC)c3c2CC2(CCOCC2)CNC3=O)cs1 [Example 260, 3-(1-ethyl-8-oxo-spiro[6,7-dihydro-4H-pyrazolo[3,4-c]azepine-5,4′-tetrahydropyran]-3-yl)propyl 2-ethylthiazole-4-carboxylate] | > 7.00 |
| CCn1nc(CCCOC(=O)c2cccc(S(=O)(=O)CC)c2)c2c1C(=O)NCC1(CCOCC1)C2 [Example 76, 3-(1-ethyl-8-oxo-spiro[6,7-dihydro-4H-pyrazolo[3,4-c]azepine-5,4′-tetrahydro-pyran]-3-yl)propyl 3-ethylsulfonylbenzoate] | > 7.00 |
| CCn1nc(CCCOC(=O)c2cccc(S(=O)(=O)N3CCCC3)c2)c2c1C(=O)NCC1(CCOCC1)C2 [Example 95, 3-(1-ethyl-8-oxo-spiro[6,7-dihydro-4H-pyrazolo[3,4-c]azepine-5,4′-tetrahydro-pyran]-3-yl)propyl 3-pyrro-lidin-1-ylsulfonylbenzoate] | > 7.00 |
| CCn1nc(C[C@@H](C)COC(=O)c2cccc(OC)c2)c2c1C(=O)NCC1(CCOCC1)C2 [Example 150, [(2R)-3-(1-ethyl-8-oxo-spiro[6,7-dihydro-4H-pyrazolo[3,4-c]azepine-5,4′-tetrahydropyran]-3-yl)-2-methyl-propyl] 3-methoxybenzoate] | > 7.00 |
| CCn1nc(CCCOC(=O)c2cc(F)ccc2C(F)(F)F)c2c1C(=O)NCC1(CCOCC1)C2 [Example 74, 3-(1-ethyl-8-oxo-spiro[6,7-dihydro-4H-pyrazolo[3,4-c]azepine-5,4′-tetrahydro-pyran]-3-yl)propyl 5-fluoro-2-(trifluoromethyl)benzoate] | > 7.00 |
| CCn1nc(CCCOC(=O)c2cccc(F)c2Cl)c2c1C(=O)NCC1(CCOCC1)C2 [Example 49, 3-(1-ethyl-8-oxo-spiro[6,7-dihydro-4H-pyrazolo[3,4-c]azepine-5,4′-tetrahydropyran]-3-yl)propyl 2-chloro-3-fluoro-benzoate] | > 7.00 |
| CCn1nc(CCCOC(=O)c2ccc(F)cc2OC)c2c1C(=O)NCC1(CCOCC1)C2 [Example 40, 3-(1-ethyl-8-oxo-spiro[6,7-dihydro-4H-pyrazolo[3,4-c]azepine-5,4′-tetrahydropyran]-3-yl)propyl 4-fluoro-2-methoxy-benzoate] | > 7.00 |
| CCn1nc(CC(C)(C)COC(=O)c2cccc(C(=O)N3CCN(C)CC3)c2)c2c1C(=O)NCC1(CCOCC1)C2 [Example 233, [3-(1-ethyl-8-oxo-spiro[6,7-dihydro-4H-pyrazolo[3,4-c]azepine-5,4′-tetrahydro-pyran]-3-yl)-2,2-dimethyl-propyl] 3-(4-methyl-piperazine-1-carbonyl)-benzoate] | > 7.00 |
| CCn1ccc(C(=O)OCCCc2nn(CC)c3c2CC2(CCOCC2)CNC3=O)n1 [Example 248, 3-(1-ethyl-8-oxo-spiro[6,7-dihydro-4H-pyrazolo[3,4-c]azepine-5,4′-tetrahydropyran]-3-yl)propyl 1-ethylpyrazole-3-carboxylate] | > 7.00 |
| CCn1nc(CCCOC(=O)c2cc(F)cc(C#N)c2)c2c1C(=O)NCC1(CCOCC1)C2 [Example 29, 3-(1-ethyl-8-oxo-spiro[6,7-dihydro-4H-pyrazolo[3,4-c]azepine-5,4′-tetrahydropyran]-3-yl)propyl 3-cyano-5-fluoro-benzoate] | > 7.00 |
| CCn1nc(CCCOC(=O)c2ccc(C(=O)N3CCCC3)cc2)c2c1C(=O)NCC1(CCOCC1)C2 [Example 107, 3-(1-ethyl-8-oxo-spiro[6,7-dihydro-4H-pyrazolo[3,4-c]azepine-5,4′-tetrahydro-pyran]-3-yl)propyl 4-(pyrrolidine-1-carbonyl)benzoate] | > 7.00 |
| CCn1nc(CCCCOC(=O)c2ccc(C(N)=O)cc2)c2c1C(=O)NCC1(CCOCC1)C2 [Example 127, 4-(1-ethyl-8-oxo-spiro[6,7-dihydro-4H-pyrazolo[3,4-c]azepine-5,4′-tetrahydropyran]-3-yl)butyl 4-carbamoylbenzoate] | > 7.00 |
| CCn1nc(CC(C)(C)COC(=O)c2cccc(C(N)=O)c2)c2c1C(=O)NCC1(CCOCC1)C2 [Example 227, [3-(1-ethyl-8-oxo-spiro[6,7-dihydro-4H-pyrazolo[3,4-c]azepine-5,4′-tetrahydropyran]-3-yl)-2,2-dimethyl-propyl] 3-carbamoylbenzoate] | > 7.00 |

— patent publication US10793580B2, “Substituted pyrazoloazepin-8-ones and their use as phosphodiesterase inhibitors” (LEO Pharma A/S, priority 2016, dated 2020)
